Assay results: PubChem BioAssay (NCI)
Several values for one entry are separate records, joined by “and”; a condition that tells them apart may be missing. Identical values can stand only once.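 Cells were grown in 96-well plates and exposed to each compound for 48 hours at five concentrations; endpoints were interpolated linearly between bracketing concentrations, or set to the highest concentration if not reached. GI50 marks 50% less growth. TGI denotes the concentration required for complete inhibition of growth.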

How the values were obtained:
Assay in all cases: growth of human tumour cells (NCI), 48 h
786-0 renal = test system: 786-0 renal
HS 578T breast = test system: HS 578T breast
K-562 leukemia = test system: K-562 leukemia
MDA-MB-231 breast = test system: MDA-MB-231 breast
OVCAR-8 ovarian = test system: OVCAR-8 ovarian
RPMI-8226 leukemia = test system: RPMI-8226 leukemia
SF-268 CNS = test system: SF-268 CNS
SR leukemia = test system: SR leukemia
TK-10 renal = test system: TK-10 renal
CAKI-1 renal = test system: CAKI-1 renal

Row | SMILES | TGI (786-0 renal) [µM] | TGI (HS 578T breast) [µM] | TGI (K-562 leukemia) | TGI (MDA-MB-231 breast) [µM] | TGI (OVCAR-8 ovarian) | TGI (RPMI-8226 leukemia) | TGI (SF-268 CNS) [µM] | TGI (SR leukemia) | TGI (TK-10 renal) [µM] | TGI (CAKI-1 renal) [µM] | GI50 (786-0 renal) | GI50 (CAKI-1 renal) [µM] | GI50 (HS 578T breast) [µM] | GI50 (K-562 leukemia) | GI50 (MDA-MB-231 breast) [µM] | GI50 (OVCAR-8 ovarian) | GI50 (RPMI-8226 leukemia) [µM] | GI50 (SF-268 CNS) | GI50 (SR leukemia) [µM] | GI50 (TK-10 renal)
1 | O=C1C=CC(=O)c2cc(Sc3ccccc3)c(=O)ccc21 | 31.9 | 64.8 | 8.75 µM | 35.4 | 33.9 µM | 14.9 µM | 44.4 | 5.96 µM | 32.2 |  |  |  |  |  |  |  |  |  |  | 
2 | CC(=O)On1c(-c2ccccc2-c2nc3ccccc3n2OC(C)=O)nc2ccccc21 | > 100 | > 100 | > 100 µM | > 100 | > 100 µM | 71 µM | > 100 | > 100 µM | > 100 | > 100 |  |  |  |  |  |  |  |  |  | 
3 | O=C(CNc1ccccc1[N+](=O)[O-])Nn1c(-c2ccccc2)nc2ccccc2c1=O | 34.5 | > 100 | 41.9 µM | 29.1 | > 100 µM | 89.5 µM | > 100 | 71.7 µM | > 10 |  |  |  |  |  |  |  |  |  |  | 
4 | C=C1CCC2C(C)(COC(=O)CC)C(OC(=O)CC)CCC2(C)C1C/C=C1/C(=O)OCC1OC(=O)CC (configuration not stated) | 3.48 | 25.5 | 10.4 µM | 5.19 | 2.13 µM | > 100 µM | 3.39 | 5.28 µM | 5.59 | 3.37 | 1.9 µM | 1.65 | 3.41 | 1.79 µM | 2.31 | 0.634 µM | 3.77 | 1.91 µM | 1.58 | 2.04 µM
5 | COc1ccc(-c2c3c(n(C4OC(COC(C)=O)C(OC(C)=O)C(OC(C)=O)C4OC(C)=O)c(=S)c2C#N)CC(C)(C)CC3=O)cc1 (configuration not stated) | > 100 | > 100 | 39.9 µM and > 100 µM | > 100 | 75.4 µM and > 100 µM | 72.1 µM and > 100 µM | > 100 | 74.7 µM and > 100 µM | > 100 | > 100 | 36.3 µM and > 100 µM |  |  | 18.2 µM and 47.5 µM |  | 22.1 µM and > 100 µM |  | 38.9 µM and > 100 µM |  | 39.5 µM and > 100 µM
6 | O=Cc1cccc2c1Oc1c(cccc1C(=O)O)S2 | > 100 | > 100 |  | > 100 | > 100 µM | 63.3 µM | > 100 | > 100 µM | > 100 | > 100 |  |  |  |  |  |  |  |  |  | 
7 | O=C(OCc1ncc(-c2ccc(C(F)(F)F)cc2)c(NC2CCCCCC2)n1)c1c(F)c(F)c(F)c(F)c1F | 27.2 | 51.9 | 30.2 µM | 23.2 | 34 µM | 9.95 µM | 28 | 12.4 µM | 37 | 37.3 | 11.4 µM | 17.5 | 16.2 | 4.86 µM | 9.93 | 12.2 µM | 3.07 | 12.9 µM | 3.13 | 21.5 µM
8 | COc1cccc(/C=C/C(=O)c2ccc(Cl)cc2Cl)c1 | 40.7 | > 50 | 26.9 µM | 15.9 | 22.7 µM | 3.86 µM | 27.4 | > 50 µM | > 50 | 29.6 | 12.8 µM | 13.1 | 22.3 | 3.22 µM | 8.11 | 9.46 µM | 1.1 | 11.2 µM | 0.833 | 12.8 µM
